Results: US4147778A, “Antibiotic baumycin complex and components thereof” (Zaidan Hojin Biseibutsu Kagaku Kenkyu Kai, priority 1976, dated 1979)
In brackets after ≈: the same amount, converted by molar mass. Entries after “also recorded” stand apart in the source; their conditions may differ.

Columns and labels:
[1] = tested on: gram-positive bacteria; assay: Antimicrobial activity against gram-positive bacteria; format: cell-based
Description: (§1) The minimum inhibitory concentration of the present antibiotics as determined by the broth dilution method are shown in Table 1.

[2] = Acute toxicity, LD50 upon intraperitoneal injection; format: in vivo
Description: The LD50 values upon intraperitoneal injection of the
antibiotics of the present invention are shown in the […]

[3] = Solubility; format: physicochemical
[4] = Toxicity in experimental animal tests; format: in vivo
[5] = tested on: animal tumors; assay: Inhibition of growth of animal tumors; format: in vivo; details: experimental animal tests
Description: (§2) For example, BDF1 mice were inoculated intraperitoneally with 1 × 10^6 L-1210 cells/mouse and 24 hrs. after inoculation the drug was intraperitoneally injected once daily for 10 days consecutively. On day 30, the % of prolongation of the survival time to control was as follows: […]

[6] = tested on: mouse L-1210 leukemia; assay: Prolongation of survival time of mice inoculated with L-1210 leukemia; format: in vivo, BDF1 mice; details: for Prolongation of the survival time T/C: BDF1 mice, 1 × 10^6 L-1210 cells i.p., day 30; for Inhibitory effect on mouse L-1210 leukemia: in words
Description: as §2

[7] = tested on: Sarcina lutea ATCC 9341; assay: Minimum inhibitory concentration, broth dilution method; format: cell-based; details: Sarcina lutea ATCC 9341
Description: as §1

[8] = tested on: B. cereus ATCC 9634; assay: as above; format: cell-based; details: B. cereus ATCC 9634
Description: as §1

[9] = tested on: Mycobacterium smegmatis ATCC 607; assay: as above; format: cell-based; details: Mycobacterium smegmatis ATCC 607
Description: as §1

[10] = tested on: Micrococcus flavs; assay: as above; format: cell-based; details: Micrococcus flavs
Description: as §1

[11] = tested on: Proteus morganii; assay: as above; format: cell-based
Description: as §1

[12] = tested on: Staph. aureus Smith; assay: as above; format: cell-based
Description: as §1

[13] = tested on: Candida tropicalis; assay: as above; format: cell-based
Description: as §1

[14] = tested on: Ps. fluorescens NIHJB-254; assay: as above; format: cell-based; details: Ps. fluorescens NIHJB-254
Description: as §1

[15] = tested on: Candida albicans IAM 4905; assay: as above; format: cell-based; details: Candida albicans IAM 4905
Description: as §1

[16] = tested on: Coryne. bovis 1810; assay: as above; format: cell-based
Description: as §1

[17] = tested on: B. megarterium NRRL B-938; assay: as above; format: cell-based
Description: as §1

[18] = tested on: B. subtilis ATCC 6633; assay: as above; format: cell-based; details: B. subtilis ATCC 6633
Description: as §1

[19] = tested on: Staph. aureus FDA209P; assay: as above; format: cell-based
Description: as §1

[20] = 1 mg./kg./day i.p. once daily for 10 days

Row | Structure (SMILES) | LD50 [2] [mg/kg] | Toxicity [4] | Prolongation of the survival time T/C [6, 20] [%] | Inhibitory effect on mouse L-1210 leukemia [6] | Minimum inhibitory concentration [7] [µg/mL] | Minimum inhibitory concentration [8] [µg/mL] | Minimum inhibitory concentration [9] [µg/mL] | Minimum inhibitory concentration [10] [µg/mL] | Minimum inhibitory concentration [11] [µg/mL] | Minimum inhibitory concentration [12] [µg/mL] | Minimum inhibitory concentration [13] [µg/mL] | Minimum inhibitory concentration [14] [µg/mL] | Minimum inhibitory concentration [15] [µg/mL] | Minimum inhibitory concentration [16] [µg/mL] | Minimum inhibitory concentration [17] [µg/mL] | Minimum inhibitory concentration [18] [µg/mL] | Minimum inhibitory concentration [19] [µg/mL] | also measured
1 | COc1cccc2c1C(=O)c1c(O)c3c(c(O)c1C2=O)CC(O)(C(C)=O)CC3OC1CC(N)C(OC(CC(C)O)OC(C)CO)C(C)O1 (stereo not shown) [BM-A2] | 15 to 20 | low toxicity | 167 | marked inhibitory effects | 3.12 (≈ 4.63 µM) | 3.12 (≈ 4.63 µM) | 12.5 (≈ 18.6 µM) | 1.56 (≈ 2.32 µM) | > 100 | 1.56 (≈ 2.32 µM) | 100 (≈ 148 µM) | 100 (≈ 148 µM) | 100 (≈ 148 µM) | 6.25 (≈ 9.28 µM) | 6.25 (≈ 9.28 µM) | 3.12 (≈ 4.63 µM) | 3.12 (≈ 4.63 µM) | Antimicrobial activity ([1]; listed as Baumycin A2): inhibit the growth of gram-positive bacteria; also recorded: possess antimicrobial activity, especially against gram-positive bacteria; Solubility ([3]; in acidic water, DMSO, methylcellosolve, methanol, ethanol, n-propanol, n-butanol, ethyl acetate, butyl acetate, acetone, methyl ethyl ketone, methylene chloride and chloroform): Soluble; Solubility ([3]; in n-hexane, cyclohexane and petroleum ether): Insoluble; Solubility ([3]; in water): Insoluble; Inhibition of growth of animal tumors / antitumor activity ([5]; listed as Baumycin A2): inhibit the growth of various animal tumors; also recorded: marked antitumor activity; also recorded: marked inhibitory action against animal malignant tumors, especially ascitic and solid tumors; Prolongation of the survival time T/C ([6]; 0.06 mg./kg./day i.p. once daily for 10 days): 141%; Prolongation of the survival time T/C ([6]; 0.125 mg./kg./day i.p. once daily for 10 days): 151%; Prolongation of the survival time T/C ([6]; 0.25 mg./kg./day i.p. once daily for 10 days): 163%; Prolongation of the survival time T/C ([6]; 0.5 mg./kg./day i.p. once daily for 10 days): 173%
2 | COc1cccc2c1C(=O)c1c(O)c3c(c(O)c1C2=O)CC(O)(C(C)=O)CC3OC1CC(N)C(OC(CC(C)O)OC(C)C(=O)O)C(C)O1 (stereo not shown) [BM-B2] | 75 to 100 | low toxicity | 99 | marked inhibitory effects | 25 (≈ 36.4 µM) | > 100 | > 100 | 50 (≈ 72.7 µM) | > 100 | 50 (≈ 72.7 µM) | > 100 | > 100 | > 100 | 50 (≈ 72.7 µM) | > 100 | > 100 | 100 (≈ 145 µM) | Antimicrobial activity ([1]; listed as Baumycin B2): inhibit the growth of gram-positive bacteria; also recorded: possess antimicrobial activity, especially against gram-positive bacteria; Solubility ([3]; in acidic water, methyl cellosolve, methanol, ethanol, n-propanol and n-butanol): Soluble; Solubility ([3]; in ethyl acetate, acetone, methylene chloride, chloroform, carbon tetrachloride, benzene, toluene, ethyl ether and n-hexane): Insoluble; Solubility ([3]; in water, listed as Baumycin B2): soluble; Inhibition of growth of animal tumors / antitumor activity ([5]; listed as Baumycin B2): inhibit the growth of various animal tumors; also recorded: marked antitumor activity; also recorded: marked inhibitory action against animal malignant tumors, especially ascitic and solid tumors; Prolongation of the survival time T/C ([6]; 2 mg./kg./day i.p. once daily for 10 days): 99%; Prolongation of the survival time T/C ([6]; 4 mg./kg./day i.p. once daily for 10 days): 111%; Prolongation of the survival time T/C ([6]; 6 mg./kg./day i.p. once daily for 10 days): 135%; Prolongation of the survival time T/C ([6]; 8 mg./kg./day i.p. once daily for 10 days): 155%
